Data reported in US9392792B1, “Topical combination of fipronil, permethrin and pyriproxyfen” (priority 2014, dated 2016).

Experiment: Crystallization test on glass slides at ambient temperature
Format: physicochemical
Conditions: comparison of compositions R1 and C2
Procedure: Number of glass slides per composition: 5 Protocol: • place the glass slides on a dark-coloured support; • deposit approximately 300 μl of the test composition on each glass slide, while spreading it on the central part of the glass slide (so as to avoid overspill); • leave the glass slide for 24 h in an environment at ambient temperature (approximately 20° C.). The following observations will be carried out: • the visual appearance (to the naked eye) of the compositions is observed after deposition thereof on a glass slide and reported in the observation table; • the visual appearance (to the naked eye) of the compositions is observed after 24 h at ambient temperature and is reported in the observation table while pointing out the possible presence and, where appropriate, the number of crystals present on the whole of the plate; • next, the plates are observed under polarized light and any crystals present are counted on the whole of the plate; an estimation of the size of the crystals is also carried out; • finally, the presence and the count of the crystals possibly present on each of the plates is reported in the observation table. […]

In the case of `CC(COc1ccc(Oc2ccccc2)cc1)Oc1ccccn1` (stereo not shown) [pyriproxyfen, Pyriproxyfen], the “effect of pyriproxyfen on crystallization of fipronil in the presence of permethrin at high concentration” value is reported as “substantially reduces the crystallization”.
